Measurements from ChEMBL document CHEMBL3525933 (Drug Metab Dispos, 2012).

Tests used:
[1] = system: Plasma; experiment: Drug recovery in Wistar rat plasma at 2000 ng/ml by HPLC-DAD analysis; format: ADME, cell-free
[2] = system: Plasma; experiment: Drug metabolism in Wistar rat plasma assessed as retention time by HPLC-DAD analysis; format: ADME, cell-free

Q: `O=c1c(-c2ccc(O)cc2)coc2cc(O[C@@H]3O[C@H](CO)[C@@H](O)[C@H](O)[C@H]3O)ccc12` [DAIDZIN] was tested. Which Drug recovery [1] did it give?
A: 85.1%

Q: What about the Retention_time [2] of the same compound?
A: 9.5 min
